# Key:
# [1] = system: LPS-induced airway inflammation; assay: LPS-induced airway inflammation in rats; type: in vivo, Male Fischer 344 rats; conditions: for TNFα / Neutrophils: rat BAL, mean ± s.e.m.
# Protocol: Example 52 was evaluated in an LPS-induced airway inflammation model in rats. Male Fischer 344 rats (n 8/group) were treated with either vehicle or test article by intratracheal instillation in […] volume 1 hour prior to LPS challenge. Animals were then exposed to LPS by nose-only inhalation exposure for 10 minutes at 5 mg/m^3 resulting in an estimated 5 μg lung deposition. Animals were sacrificed 4 hours after LPS exposure. Lungs were lavaged for bronchoalveolar lavage cell differentials and cytokine analysis by Luminex multiplex immunoassay.
# [2] = system: carbachol-induced bronchoconstriction; assay: Carbachol-induced bronchoconstriction in sheep; type: in vivo; conditions: Example 52 4.7 mg, Salmeterol 2.5 mg, mean ± s.e.m, n=4
# Protocol: Bronchoconstriction was evaluated as a function of increased pulmonary resistance following carbachol challenge. […] Test article was administered either by a pre-dosing or duration of action protocol. In the pre-dosing regimen, animals were dosed once daily for four days, with the last dose administered 1 hr before carbachol challenge. In the duration of action regimen, animals were dosed once daily for four days, with the last dose administered 24 hours before carbachol challenge. Test article and carbachol were administered by nebulized aerosol to intubated sheep.
# [3] = system: tobacco-smoke-induced airway inflammation; assay: Tobacco smoke model of airway inflammation in mice; type: in vivo, female C3H mice; conditions: for IL-1α / MIP-1α / Neutrophils: mean ± s.e.m.
# Protocol: Vehicle and test articles are delivered by intratracheal instillation in 10% ethanol water to animals anesthetized with 3-5% isoflurane (n=8 animals per test article group). All compounds will be delivered on a daily (5 days per week) schedule for 3 weeks during the smoke exposures. Mice were exposed to cigarette smoke for 6 hours per day, 5 days per week for 3 weeks, in H1000 or H2000 chambers. Type 2R4F research cigarettes (Kentucky Tobacco Research and Development Center) were used in the study. Total particulate material (TPM) exposure was kept at […] for the first week to allow animals to reduce adverse effects during adaptation to smoke exposure. TPM exposure was maintained between 100 and 250 mg TPM/m^3 during the remainder of the study. After 3 weeks, animals were euthanized and bronchoalveolar lavage fluid was obtained for cell differentials and cytokine analysis by Luminex multiplex immunoassay.
compound,measurement,setting,value
"CC[N+](CC)(CC(=O)OCC(=O)[C@@]12O[C@H](C3CCCCC3)O[C@@H]1C[C@H]1[C@@H]3CCC4=CC(=O)C=C[C@]4(C)[C@H]3[C@@H](O)C[C@@]12C)Cc1cc(C(O)CNCCCCCCOCCCCc2ccccc2)ccc1OP(=O)(O)O.[Cl-] (stereo partly drawn) [Example 52, [5-[1-hydroxy-2-[6-(4-phenylbutoxy)hexylamino]ethyl]-2-phosphonooxybenzyl]-(diethyl)-[[11β,16α]-[[15,16-((R)-cyclohexylmethylene)bis(oxy)]-11-hydroxypregna-1,4-diene-3,20-dion-21-yl]carbonylmethyl]ammonium chloride]",TNFα,[1]; 0.6 mg/kg intratracheal,293.6 ± 40.6 pg/mL
same,TNFα,[1]; 1 mg/kg intratracheal,361.7 ± 56.6 pg/mL
same,Neutrophils,"[1]; 3 mg/kg intratracheal, 1 hour prior to LPS",13.5 ± 0.92 × 10^4/ml
same,TNFα,[1]; 3 mg/kg intratracheal,307.0 ± 60.0 pg/mL
same,Neutrophils,[1]; 6 mg/kg intratracheal,6.4 ± 0.41 × 10^4/ml
same,Inhibition of LPS-induced airway inflammation measured as neutrophil influx and TNFα production,"[1]; at doses tested, versus vehicle control",significantly inhibit
same,Lung Resistance (% Increase) at 2% Carbachol,"[2]; Duration of action regimen (last dose 24 hours before carbachol), Ciclesonide 2.2 mg + Salmeterol Xinafoate 2.5 mg",450 ± 36 % Increase
same,Lung Resistance (% Increase) at 2% Carbachol,[2]; Predosing regimen (last dose 1 hr before carbachol),335 ± 38 % Increase
same,IL-1α,[3]; 0.6 mg/kg i.t.,2.54 ± 0.59 pg/mL
same,MIP-1α,[3]; 0.6 mg/kg i.t.,4.34 ± 1.15 pg/mL
same,Neutrophils,[3]; 0.6 mg/kg i.t.,7.7 ± 1.8 ×10^4/ml
same,IL-1α,[3]; 1.0 mg/kg i.t.,2.74 ± 0.64 pg/mL
same,MIP-1α,[3]; 1.0 mg/kg i.t.,7.0 ± 1.40 pg/mL
same,Neutrophils,[3]; 1.0 mg/kg i.t.,8.5 ± 1.3 ×10^4/ml
same,Inhibition of tobacco-smoke-induced IL-1α and MIP-1α production,"[3]; p<0.05 versus vehicle control at 1.0 and 0.6 mg/kg doses, 20-plex Luminex assay",exhibited inhibition

# — US20090318396A1, “CORTICOSTEROID LINKED BETA-AGONIST COMPOUNDS FOR USE IN THERAPY” (priority 2008, published 2009)
